Test [1] concerns SKM-1. The test can be described thus: CellTiter Blue cell viability assay. In kind it is cell-based, human. Conditions: SKM-1, 48 h, read-out: cellular IC50. The text has this:
(§1) The human AML cell lines, OCI-AML3 (carrying the NPM1 gene mutation A and the DNMT3A^R882C mutation), IMS-M2 (carrying the NPM1 gene mutation A), OCI-AML2 (with the wild-type NPM1 and DNMT3A^R635W mutation), and SKM-1 and MOLM-13 (with the wild-type NPM1) were previously reported. The cell lines were purchased from the Deutsche Sammelung von Mikroorganismen und Zellkulturen (DSMZ) (Braunschweig, Germany) cell bank and maintained according to the vendors’ instructions. Briefly, cultured cells were split every 3 days and maintained in an exponential growth phase. The cell lines were tested for mycoplasma using the Universal Mycoplasma Detection Kit (ATCC). The OCI-AML3 were grown in α-MEM supplemented with 20% fetal bovine serum, 100 U/mL penicillin, and 100 μg/mL streptomycin (P/S), and all other cell lines were cultured in RPMI and supplemented with a 10–20% fetal bovine serum and 100 U/mL penicillin and 100 μg/mL streptomycin. The cells were kept at 37 °C in a 5% CO2 incubator. Prior to screening, the appropriate cell concentration for all cell lines was determined. For the cell lines’ treatments, cells were maintained as follows: OCI-AML3 at 0.25 × 10^6/mL, OCI-AML2 and IMS-M2 at 0.35 × 10^6/mL, and SKM-1 and MOLM-13 at 0.5 × 10^6/mL. The compounds were re-suspended at 10 mM stock in DMSO. Further dilutions were performed in phosphate-buffer-saline (PBS) for pharmacological experiments. The cells were exposed to compounds at different concentrations for the indicated time points and sampled as described below. Briefly, the cells (4 × 10^5/mL) were seeded in 384-well plate and treated for 48 h with various concentrations (0.001 μM to 100 μM) of either one of the compounds, T101, T126, and T159, or NSC348884, as a positive control. Each plate included DMSO at 0.1% as a negative control. The metabolic cell activity was measured by using the CellTiter Blue proliferation agent (Roche) as described in the manufacturer’s procedure. Briefly, CellTiter Blue solution (Resazaurin) was added to each well and the plates were incubated at 37 °C with 5% CO2 for 4 h. During the incubation time, the resazurin is reduced to fluorescent resorufin in metabolically and proliferating living cells. The fluorescence intensity was measured using the automated Tecan plate reader (Tecan Group Ltd., Männedorf, Switzerland) at an excitation/emission wavelength of 531/572 nm. The fluorescence readouts were reported as relative fluorescence units (RFU) and read on a luminescence plate reader (Infinite 200 Pro, Tecan, CA, USA). The dose response curves ([…] (IC50)) were obtained by non-linear regression analysis using the GraphPad Prism 5.0 program. The concentration is shown as a logarithmic function. All the experiments were performed at least in triplicate, with technical repetition. The results are expressed as mean ± standard error of the mean (SEM). For the Colony Forming Unit (CFU) assay, 10 × 10^6 CD34+ human hematopoietic progenitors were received from unique healthy donors, upon signed informed consent, and were cultured in SFEM II (Serum-free medium) and P/S at a density of 1 × 10^6/mL with cytokines that are important for cell division and self-renewal: fms-like tyrosine kinase 3 (FLT3)-ligand, FLT3L (100 ng/mL), Stem Cell Factor, SCF (100 ng/mL) and Trombopoietin, and TPO (50 ng/mL) for 48 h before plating them on a Methocult medium.

In test [2] the test system is IMS-M2. Put plainly: CellTiter Blue cell viability assay. The test is classed as cell-based, human. To be noted: IMS-M2, 48 h, read-out: cellular IC50.
Description: as §1
(In general: Alamar Blue is a resazurin reagent that responds to reducing activity.)

In test [3] the test system is OCI-AML2. Put plainly: CellTiter Blue cell viability assay. The test is classed as cell-based, human. Conditions: OCI-AML2, 48 h, read-out: cellular IC50.
Description: as §1

The test system of test [4] is MOLM-13. The test can be described thus: CellTiter Blue cell viability assay. In kind it is cell-based, human. Conditions: MOLM-13, 48 h, read-out: cellular IC50.
Description: as §1

Test [5] concerns OCI-AML3. Put plainly: CellTiter Blue cell viability assay. To be noted: OCI-AML3, 48 h, read-out: cellular IC50. In kind it is cell-based, human.
Description: as §1

The target of test [6] is T1, AKT1 (Homo sapiens, UniProt P31749).
T1 construct: purchased Kinase Logistics, Meyn, Germany #Aps 01-101
The test can be described thus: AKT1 enzymatic inhibition assay. Conditions: for Ligand efficiency (LE = 1.4 pIC50/N): from AKT1 IC50, N = heavy atoms; for Ki: read-out: Ki (AKT1 inhibition constant). In kind it is biochemical. Here is the method:
The studied compounds, including the standard inhibitor Staurosporine (Thermo-Fisher , Madrid, Spain, Invitrogen BP2541), were incubated with 3 nM AKT1 (#Aps 01-101; Kinase Logistics, Meyn, Germany) and 1.5 μM Profiler Pro peptide 6 (#760350; Perkin Elmer, Tres Cantos, Madrid, Spain) in the presence of different concentrations of Adenosine 5′triphosphate disodium salt, ATP (#A2383; Sigma Aldrich, Madrid, Spain) in a 384-well Microplate (#781076; Greiner, San Sebastián de los Reyes, Madrid, Spain). The reaction rate was calculated from kinetic measurements carried out measured in a Caliper EzReader LabChip 3000 (Caliper, Hopkinton, MA, USA) reader with samples taken each 10 min for a total time of 60 min. The percentage of substrate conversion rate was plotted versus the ATP concentration. The data was analyzed by non-linear fitting with GraphPad Prism by employing the Michaelis–Menten equation. The buffer assay used in the inhibition hAKT1 assay is: Hepes 100 mM, DMSO 4%, Brij 0.003%, Tween 20 0.004%, MgCl2 10 mM, with a pH = 7.5.
The Ki values were calculated by employing the GraphPad Prism equations.

In test [7] the test system is p38 MAPK. Put plainly: activity against p38 MAPK (originally desired target). In kind it is biochemical.
For test [8], the system named is AKT1. Set-up: method as in PMID 33995085. To be noted: ref [51]; cited from earlier work.
Test [9] deals with AKT3. Also on record: method as in PMID 33995085. To be noted: ref [51]; cited from earlier work.
[10] abbreviates: 10 μM compound, read-out: %inh (percentage of inhibition of AKT1 activity).

Read-outs that look alike come from different tables or passages of the source.

T1 sequence (P31749 whole entry): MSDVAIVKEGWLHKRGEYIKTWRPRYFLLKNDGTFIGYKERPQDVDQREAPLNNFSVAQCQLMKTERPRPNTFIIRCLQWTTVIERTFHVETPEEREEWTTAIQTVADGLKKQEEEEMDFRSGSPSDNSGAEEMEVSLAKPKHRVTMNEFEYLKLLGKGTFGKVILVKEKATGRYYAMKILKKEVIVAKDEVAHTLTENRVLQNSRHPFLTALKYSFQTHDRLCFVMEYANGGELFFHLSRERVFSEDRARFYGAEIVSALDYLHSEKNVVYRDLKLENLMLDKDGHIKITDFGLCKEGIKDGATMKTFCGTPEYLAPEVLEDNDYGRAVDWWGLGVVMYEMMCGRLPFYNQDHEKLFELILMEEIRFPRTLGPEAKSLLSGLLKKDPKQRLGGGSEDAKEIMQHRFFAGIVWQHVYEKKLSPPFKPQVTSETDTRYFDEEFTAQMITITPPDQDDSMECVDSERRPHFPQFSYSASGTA

By IC50 is commonly meant the point on the concentration scale where inhibition reaches its midpoint. `Cc1ccc2nc(CN(CCN(Cc3nc4ccc(C)cc4[nH]3)Cc3nc4ccc(C)cc4[nH]3)Cc3nc4ccc(C)cc4[nH]3)[nH]c2c1` [NSC348884, reference compound]: the half-maximal inhibitory concentration (IC50) in test [1] was 2.1 µM; in test [2], 7.6 µM; in [3], 5.6 µM; in test [4] it was 3.4 µM; in test [5], 6.6 µM.
Broadly, the inhibition is the percentage by which the read-out fell short of the control. The term Ki denotes the equilibrium dissociation constant of an inhibitor or competing ligand from its target. Take `Cc1cc(-c2ccccc2)nc2nc(NC(=O)c3ccc(O)c(O)c3)nn12` [T101]: the IC50 is 1.62 ± 0.15 µM in test [6]; > 30 µM in test [1] (Homo sapiens); > 30 µM in test [2] (Homo sapiens); > 30 µM in test [3] (Homo sapiens); > 30 µM in [4] (Homo sapiens); > 30 µM in test [5] (Homo sapiens, OCI-AML-3). Moreover, the inhibition at 10 µM in test [6] (setting [10]) amounted to 95%. For the same molecule, in test [6], the “Ligand efficiency (LE = 1.4 pIC50/N)” value was determined as 0.29 kcal mol^−1 N^−1. The inhibition constant (Ki) in test [6] came out at 0.24 µM.
Consider `O=c1[nH]c(-c2ccc(O)c(O)c2)nc2sc3c(c12)CCCCC3` [T124], for which, in [6], the IC50 was found to be 30.9 µM, the “potency against AKT1 (in words)” value is on record as “moderately active” and the “Ligand efficiency (LE = 1.4 pIC50/N)” value is recorded as 0.27 kcal mol^−1 N^−1. The “%inh (percentage of inhibition of AKT1 activity)” value in [6] (10 μM compound, 10 µM) turned out to be 60%. Further, the inhibition at 10 µM in test [6] (setting [10]) is > 60%.
Turning to `O=c1[nH]c(-c2ccc(O)c(O)c2)nc2sc3c(c12)CCC3` [T128], in [6], half-maximal inhibition (IC50) was put at 26.6 ± 4.8 µM, the “potency against AKT1 (in words)” value is on record as “moderately active” and the “Ligand efficiency (LE = 1.4 pIC50/N)” value is reported as 0.30 kcal mol^−1 N^−1. The inhibition at 10 µM in test [6] (setting [10]) worked out at 78%.
For the molecule `NC(=O)c1c(NC(=O)c2ccc(O)c(O)c2)sc2c1CCCCC2` [T159], the IC50 was 2.12 ± 0.26 µM in [6]; > 30 µM in test [1] (Homo sapiens); > 30 µM in test [2] (Homo sapiens); > 30 µM in test [3] (Homo sapiens); > 30 µM in [4] (Homo sapiens); > 30 µM in [5] (Homo sapiens, OCI-AML-3). The inhibition at 10 µM in [6] (setting [10]) amounted to 94%. For the same molecule, in test [6], the inhibition constant Ki worked out at 1.91 µM.
As to `NC(=O)c1c(NC(=O)c2ccc(F)cc2F)sc2c1CCCCC2` [T187, 2-(2,4-Difluorobenzamido)-5,6,7,8-tetrahydro-4H-cyclohepta[b]thiophene-3-carboxamide], the “activity against p38 MAPK” value in test [7] was “inactive”. Also, in [6], it took 11.4 ± 2.8 µM to reach half-maximal inhibition (IC50), the “Ligand efficiency (LE = 1.4 pIC50/N)” value is listed as 0.28 kcal mol^−1 N^−1 and the Ki is 4.19 ± 1.36 µM. The inhibition at 10 µM in [6] (setting [10]) is 56%. For the same molecule, the inhibition at 50 µM in [6] (50 μM compound solution (footnote b of Table S2), read-out: %inh (percentage of inhibition of AKT1 activity)) turned out to be 56%.
For the molecule `NC1(C(=O)N[C@@H](CCO)c2ccc(Cl)cc2)CCN(c2ncnc3[nH]ccc23)CC1` [capivasertib, 4-amino-N-[(1S)-1-(4-chlorophenyl)-3-hydroxypropyl]-1-(7H-pyrrolo[2,3-d]pyrimidin-4-yl)piperidine-4-carboxamide], the half-inhibitory concentration (IC50) in test [8] was […].
With `CC(C)NC[C@@H](C(=O)N1CCN(c2ncnc3c2[C@H](C)C[C@H]3O)CC1)c1ccc(Cl)cc1` [ipatasertib], the figures for the 50% inhibitory concentration (IC50) in [9] and in [8] were […] and […], respectively.

The values are drawn from PMC9698716, “From Serendipity to Rational Identification of the 5,6,7,8-Tetrahydrobenzo[4,5]thieno[2,3-d]pyrimidin-4(3H)-one Core as a New Chemotype of AKT1 Inhibitors for Acute Myeloid Leukemia” (Pharmaceutics, 2022).
